Experiments:
[1] = tested on: E. coli BAA-197 (ESBL); experiment: Selective lysis test, OD600, meropenem and cefotaxime (Example 2); format: cell-based
Method: (§1) In this experiment the following strains were tested: strain K. pneumoniae 13882 (previously considered meropenem sensitive and cefotaxime sensitive); E. coli BAA-197 (ESBL) (which expresses an extended-spectrum (beta)-lactamase enzyme and was previously considered meropenem sensitive and cefotaxime resistant); K. pneumoniae BAA-1705 (KPC) (which expresses a carbapenemase enzyme and was previously considered meropenem resistant and cefotaxime resistant); and K. pneumoniae BAA-2146 (NDM1) (which expresses the metallo-beta-lactamase-1 enzyme and was previously considered meropenem resistant and cefotaxime resistant).
(§2) An isolated colony from an overnight Tryptocase Soy Agar (TSA) plate of each bacteria was suspended in 1 ml Tryptocase Soy Broth (TSB) in a 5 ml BD polystyrene round bottom tube. TSB cultures were incubated at 37° C. for 1.5 hours shaking. Three 250 μl aliquots of each stationary-phase culture were then transferred to three 2 ml Eppendorf microcentrifuge tubes. One tube contained 500 μl of Normal Saline (BD); the second tube contained 500 μl Normal Saline with meropenem at 10 μg/ml; and the third tube contained 500 μl Normal Saline with cefotaxime (abbreviated […]) at 10 μg/ml. Tubes were inverted then incubated at 37° C. stagnant for thirty minutes. Then […] of lysis buffer (0.5% SDS in PSB) was added to each tube and each tube was vortexed for 5 seconds. Post incubation, all tubes were spun at 10000 G for 5 minutes. Supernatant was decanted and the pellet resuspended in Normal Saline. Tubes were vortexed. OD600 was measured using Eppendorf uvettes in a spectrophotometer. The delta between the control and the meropenem normal saline, or the control and the cefotaxime normal saline was used to determine susceptibility.

[2] = tested on: K. pneumo KPC 1705; experiment: Selective lysis test, OD600 turbidity (Example 1); format: cell-based, Klebsiella pneumoniae
Method: (§3) An isolated colony from an overnight Tryptocase Soy Agar (TSA) plate of each bacterial strain was suspended in 1 ml Tryptocasc Soy Broth (TSB) in a 5 ml BD polystyrene round bottom tube. TSB cultures were incubated shaking at 37° C. overnight. Ten of the overnight culture was inoculated into lml TSB and incubated shaking at 37° C. for three hours. Two […] aliquots of each log-phase culture were then transferred to two 2 ml Eppendorf microcentrifuge tubes. One tube contained 5000 of Normal Saline (BD); the second tube contained 5000 Normal Saline with meropenem at 10 μg/ml (final concentration of meropenem of 6.67 10 μg/ml). Tubes were inverted and then incubated at 37° C. stagnant for thirty minutes. Then […] of lysis buffer (0.5% SDS in PSB) (final concentration of SDS of 0.125%) was added to each tube and the tubes were vortexed for 5 seconds. Post incubation, all tubes were spun at 10000 G for 5 minutes. Supernatant was decanted and the pellet resuspended in Normal Saline. Tubes were vortexed again. OD600 was measured using Eppendorf uvettes in a spectrophotometer. The delta between the OD600 of the normal saline control and the OD600 for the test sample exposed to meropenem in normal saline was used to determine susceptibility of the bacterial strain to meropenem.
(§4) The tested resistant strains were Klebsiella pneumoniae carbapenemase (KPC)-producing bacteria (abbreviated “KPC”), KPC-producing Klebsiella oxytoca (abbreviated “KPC K. oxy), and Klebsiella pneumoniae producing Metallo-beta-lactamase-1 (NDM-1) (abbreviated “NDM”).

[3] = tested on: K. pneumo KPC 65707; experiment: Selective lysis test, OD600 turbidity (Example 1); format: cell-based, Klebsiella pneumoniae
Method: as §3, §4

[4] = tested on: K. pneumo KPC KPC12; experiment: Selective lysis test, OD600 turbidity (Example 1); format: cell-based, Klebsiella pneumoniae
Method: as §3, §4

[5] = tested on: K. pneumo KPC 24605; experiment: Selective lysis test, OD600 turbidity (Example 1); format: cell-based, Klebsiella pneumoniae
Method: as §3, §4

[6] = tested on: K. pneumo NDM 2146; experiment: Selective lysis test, OD600 turbidity (Example 1); format: cell-based, Klebsiella pneumoniae
Method: as §3, §4

[7] = tested on: K. pneumo KPC 4121; experiment: Selective lysis test, OD600 turbidity (Example 1); format: cell-based, Klebsiella pneumoniae
Method: as §3, §4

[8] = tested on: K. pneumo KPC 41217; experiment: Selective lysis test, OD600 turbidity (Example 1); format: cell-based, Klebsiella pneumoniae
Method: as §3, §4

[9] = tested on: K. pneumo KPC 12213; experiment: Selective lysis test, OD600 turbidity (Example 1); format: cell-based, Klebsiella pneumoniae
Method: as §3, §4

[10] = tested on: K. pneumo BAA-2146 (NDM1); experiment: Selective lysis test, OD600, meropenem and cefotaxime (Example 2); format: cell-based, K. pneumoniae
Method: as §1, §2

[11] = tested on: K. pneumo BAA-1705 (KPC); experiment: as above; format: cell-based, K. pneumoniae
Method: as §1, §2

[12] = tested on: K. pneumo 13882; experiment: as above; format: cell-based, K. pneumoniae
Method: as §1, §2

[13] = tested on: strains previously considered susceptible to meropenem; experiment: Selective lysis OD600 test, summary over the strains of Table 1; format: cell-based, Enterobacteriaceae; conditions: 13 of 14 strains of Table 1
Method: as §3
Species abbreviations: sp. […]

[14] = tested on: K. oxy 43086; experiment: Selective lysis test, OD600 turbidity (Example 1); format: cell-based, Klebsiella oxytoca
Method: as §3

[15] = OD600 vs control without meropenem
[16] = meropenem 10 μg/ml, 30 min, SDS lysis buffer + vortex

In the case of `C[C@@H](O)[C@H]1C(=O)N2C(C(=O)O)=C(S[C@@H]3CN[C@H](C(=O)N(C)C)C3)[C@H](C)[C@H]12` [meropenem], the “assay score (sensitive or resistant)” value [1] is reported as “sensitive”, the “% diff” value ([1]; OD600 vs control) is reported as 87.3% and the OD600 ([1]; antibiotic 10 μg/ml, 30 min, SDS lysis buffer + vortex, 1.5 h culture) is reported as 0.046. The “R or S” value [2] was “R”, the “% Change” value [2, 15] was −32% and the “Mero OD600” value [2, 16] was 1.65. For the same molecule, the “R or S” value [3] was “R”, the “% Change” value [3, 15] was 12% and the “Mero OD600” value [3, 16] was 1.887. The “R or S” value [4] was “R”, the “% Change” value [4, 15] was 2% and the “Mero OD600” value [4, 16] was 1.844. For the same molecule, the “R or S” value [5] was “R”, the “% Change” value [5, 15] was 6% and the “Mero OD600” value [5, 16] was 2.0363. The “R or S” value [6] was “R”, the “% Change” value [6, 15] was 18% and the “Mero OD600” value [6, 16] was 1.576. For the same molecule, the “R or S” value [7] was “R”, the “% Change” value [7, 15] was −3% and the “Mero OD600” value [7, 16] was 1.734. The “R or S” value [8] was “R”, the “% Change” value [8, 15] was 5% and the “Mero OD600” value [8, 16] was 1.764. The “R or S” value [9] was “R”, the “% Change” value [9, 15] was −5% and the “Mero OD600” value [9, 16] was 1.454. For the same molecule, the “% diff” value ([10]; K. pneumo BAA-2146 (NDM1), OD600 vs control) was −0.3%, the OD600 ([10]; K. pneumo BAA-2146 (NDM1), antibiotic 10 μg/ml, 30 min, SDS lysis buffer + vortex, 1.5 h culture) was 0.301 and the “assay score (sensitive or resistant)” value ([10]; K. pneumoniae BAA-2146 (NDM1)) was “resistant”. The “% diff” value ([11]; K. pneumo BAA-1705 (KPC), OD600 vs control) was 16.6%, the OD600 ([11]; K. pneumo BAA-1705 (KPC), antibiotic 10 μg/ml, 30 min, SDS lysis buffer + vortex, 1.5 h culture) was 0.423 and the “assay score (sensitive or resistant)” value ([11]; K. pneumoniae BAA-1705 (KPC)) was “resistant”. For the same molecule, the “% diff” value ([12]; K. pneumo 13882, OD600 vs control) was 65.1%, the OD600 ([12]; K. pneumo 13882, antibiotic 10 μg/ml, 30 min, SDS lysis buffer + vortex, 1.5 h culture) was 0.127 and the “assay score (sensitive or resistant)” value ([12]; K. pneumoniae 13882) was “sensitive”. For the same molecule, the “decrease of OD600 turbidity vs negative control” value [13] was “at least 88%”, the “R or S” value [14] was “S (a percentage change of greater than about 85% indicates a strain is susceptible)” and the “% Change” value [14, 15] was 99%. The “Mero OD600” value [14, 16] was 0.02.
